Laboratory results from ChEMBL document CHEMBL1201862, “PubChem BioAssay data set” (2004).
The source made the active and inactive calls.

Key:
[1] = target: T1, Alkaline phosphatase, tissue-nonspecific isozyme (Homo sapiens, UniProt P05186); test: human TNAP enzyme inhibitors, SAR follow-up, biochemical, luminescent, dose response (AID 1056)
T1 sequence (P05186 whole entry): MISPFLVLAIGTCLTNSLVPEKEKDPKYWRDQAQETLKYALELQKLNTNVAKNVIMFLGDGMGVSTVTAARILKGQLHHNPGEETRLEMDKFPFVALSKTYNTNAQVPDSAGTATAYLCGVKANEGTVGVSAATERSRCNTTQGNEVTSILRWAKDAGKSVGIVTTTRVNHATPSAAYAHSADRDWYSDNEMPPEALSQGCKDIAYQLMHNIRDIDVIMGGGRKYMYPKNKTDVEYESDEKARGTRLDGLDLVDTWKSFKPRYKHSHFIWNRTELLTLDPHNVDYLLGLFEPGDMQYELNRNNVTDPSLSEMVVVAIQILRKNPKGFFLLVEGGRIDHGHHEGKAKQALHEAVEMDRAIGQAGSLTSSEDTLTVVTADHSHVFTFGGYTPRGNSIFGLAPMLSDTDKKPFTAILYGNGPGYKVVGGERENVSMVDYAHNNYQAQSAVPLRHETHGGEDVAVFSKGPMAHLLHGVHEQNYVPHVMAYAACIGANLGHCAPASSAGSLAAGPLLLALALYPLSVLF

[2] = target: Alkaline phosphatase, placental type (Homo sapiens, UniProt P05187); test: PLAP enzyme inhibitors, confirmation, biochemical, luminescence (AID 1512); type: functional
[3] = target: Glyceraldehyde-3-phosphate dehydrogenase (Homo sapiens, UniProt P04406)
[4] = target: Melanin-concentrating hormone receptor 1 (Homo sapiens, UniProt Q99705); test: Late-stage fluorescence-based counterscreen for antagonists of the G-protein coupled receptor 7 (GPR7): cell-based dose response assay to identify antagonists of the melanin-concentrating hormone receptor 1 (MCHR1). [Related pubchem assays (depositor defined):AID1861, AID1880, AID1952, AID2148, AID2251, AID2257, AID485339]; type: functional;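 note: stimulated with 30 nM MCH peptide agonist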
[5] = target: T2, Dual specificity protein phosphatase 3 (Homo sapiens, UniProt P51452); test: SAR VHR1 Fluorescent Assay for In Vitro dose response studies. [Related pubchem assays (depositor defined):AID1654, AID1661, AID1878, AID1992, AID2004, AID2070, AID2085]; type: functional
[6] = target: T3, Tyrosine-protein phosphatase non-receptor type 7 (Homo sapiens, UniProt P35236); test: HePTP (PTPN7) phosphatase inhibitor potency, SAR follow-up, biochemical, set 2 (AID 449736); type: functional
T3 sequence (P35236 whole entry): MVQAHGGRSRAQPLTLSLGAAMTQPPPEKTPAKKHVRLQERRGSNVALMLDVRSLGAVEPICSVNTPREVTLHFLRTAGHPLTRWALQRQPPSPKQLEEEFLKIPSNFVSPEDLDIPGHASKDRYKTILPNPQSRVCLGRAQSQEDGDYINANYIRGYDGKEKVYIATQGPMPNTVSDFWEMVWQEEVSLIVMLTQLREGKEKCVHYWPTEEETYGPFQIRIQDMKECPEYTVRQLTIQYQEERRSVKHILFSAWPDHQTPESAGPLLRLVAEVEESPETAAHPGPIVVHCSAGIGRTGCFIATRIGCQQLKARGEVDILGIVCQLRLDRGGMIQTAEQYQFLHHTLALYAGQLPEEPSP

[7] = target: T4, Dual specificity protein phosphatase 6 (Rattus norvegicus, UniProt Q64346); type: functional
T4 sequence (Q64346 whole entry): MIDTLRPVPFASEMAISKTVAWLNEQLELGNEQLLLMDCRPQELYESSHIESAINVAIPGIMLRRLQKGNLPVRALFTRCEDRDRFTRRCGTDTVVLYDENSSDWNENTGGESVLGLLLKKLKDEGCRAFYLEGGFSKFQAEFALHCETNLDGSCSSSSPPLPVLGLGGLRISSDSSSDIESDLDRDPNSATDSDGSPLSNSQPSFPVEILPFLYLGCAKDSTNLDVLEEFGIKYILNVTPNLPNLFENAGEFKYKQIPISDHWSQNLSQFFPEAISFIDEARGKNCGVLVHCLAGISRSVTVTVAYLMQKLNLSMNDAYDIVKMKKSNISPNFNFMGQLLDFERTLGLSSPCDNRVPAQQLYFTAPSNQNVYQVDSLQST

[8] = target: T3, Tyrosine-protein phosphatase non-receptor type 7; test: SAR analysis of chemical inhibitors of HePTP using a Fluorescent assay - Set 2. [Related pubchem assays (depositor defined):AID1059, AID1077, AID1661, AID2085, AID521]; type: functional
[9] = target: T4, Dual specificity protein phosphatase 6; test: SAR analysis of inhibitors of MKP-3 - Set 2. [Related pubchem assays (depositor defined):AID1055, AID1661, AID425, AID553, AID566]; type: functional
[10] = target: T2, Dual specificity protein phosphatase 3; test: SAR VHR1 absorbance Assay for In Vitro dose response studies. [Related pubchem assays (depositor defined):AID1654, AID1661, AID1878, AID1992, AID2004]
[11] = target: T3, Tyrosine-protein phosphatase non-receptor type 7; test: redox-dependent HePTP inhibition, mechanism study, biochemical, fluorescence (AID 2068); type: functional
[12] = target: T2, Dual specificity protein phosphatase 3; test: SAR VHR1 Fluorescent Assay for In Vitro dose response studies Set 2. [Related pubchem assays (depositor defined):AID1654, AID1661, AID1878]; type: functional
[13] = inhibitors of intracellular T. cruzi replication, confirmation, NIH3T3 host cells, beta-gal luminescence (AID 2044); type: functional, cell-based;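 note: intracellular parasites grown in NIH/3T3 mouse fibroblasts as host cells; luminescent beta-galactosidase reporter signal from transgenic T. cruzi replicating inside host cells; inhibitors lower the luminescence signal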
[14] = cytotoxicity in NIH/3T3 mouse fibroblasts, dose response, cytotoxicity control, cell-based, mouse embryonic fibroblasts, dry powder, set 2 (AID 493247); type: functional; conditions: Fibroblast
[15] = cytotoxicity toward NIH3T3 fibroblasts, dose response, counter-screen, cell-based, ATP luminescence, mouse fibroblasts (AID 2010); type: functional;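 note: cells exposed to compound for about 90 hours before reading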
[16] = target: G-protein coupled receptor 55 (Homo sapiens, UniProt Q9Y2T6); test: GPR55 agonists via beta-arrestin recruitment, primary screen, imaging, U2OS cells, beta-arrestin-GFP redistribution (AID 1961); type: functional
[17] = target: Tyrosine-protein phosphatase non-receptor type 12 (Homo sapiens, UniProt Q05209); test: SAR Selectivity Analysis of small molecule inhibitors of PEST using pCAP in a fluorescence assay. [Related pubchem assays (depositor defined):AID1779, AID1784, AID2135]; type: functional
[18] = target: T5, Tyrosine-protein phosphatase non-receptor type 22 (Homo sapiens, UniProt Q9Y2R2); test: LYP (PTPN22) phosphatase inhibitor potency, SAR follow-up, biochemical, pCAP fluorogenic substrate, fluorescence, set 3 (AID 449727); type: functional
[19] = target: T5, Tyrosine-protein phosphatase non-receptor type 22; test: SAR LYP1 Fluorescent Assay using OMFP substrate for In Vitro dose response studies - Set 3. [Related pubchem assays (depositor defined):AID1779, AID1784, AID2140, AID2686]; type: functional
[20] = target: CAAX prenyl protease 2 (Saccharomyces cerevisiae S288c, UniProt Q03530); type: biochemical
[21] = system: HEK293; test: cells; conditions: Homo sapiens;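 note: cells exposed to compound for 14 hours overnight before viability readout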
[22] = target: Nucleotide-binding oligomerization domain-containing protein 1 (Homo sapiens, UniProt Q9Y239); test: NOD1 signaling inhibitors, SAR follow-up, revised (AID 2333); type: functional
[23] = target: Nucleotide-binding oligomerization domain-containing protein 2 (Homo sapiens, UniProt Q9HC29); test: PubChem AID 2334; type: functional
[24] = target: Tumor necrosis factor (Homo sapiens, UniProt P01375); test: TNFa-triggered NF-kB activation inhibitors, SAR follow-up, cell-based, revised (AID 2337); type: functional
[25] = system: Vero; test: cytotoxicity of synthesized analogs in Vero 76, SAR follow-up, cytotoxicity control for West Nile virus antiviral project, Vero 76 cells (AID 2414); type: functional; conditions: Chlorocebus sabaeus
[26] = system: Vero; test: West Nile virus CPE inhibition, SAR follow-up, cell-based, synthesized analogs (AID 2238); type: functional; conditions: Chlorocebus sabaeus
[27] = A Cell Based Assay for the Identification of Probe candidate Compounds with Anti- Venezuelan Equine Encephalitis virus. [Related pubchem assays: 2409, 2419, 1621, 2238, 2405, 2024, 2065, 2402, 2414, 1635, 1650, 2244 ]; type: functional
[28] = system: Vero; test: West Nile virus cytopathic effect inhibition, cell-based (AID 2419); type: functional; conditions: Chlorocebus sabaeus
[29] = system: Vero; test: Vero E6 cell cytotoxicity, SAR follow-up, cytotoxicity control for West Nile virus antiviral project, synthesized analogs (AID 2244); type: functional; conditions: Chlorocebus sabaeus
[30] = system: Vero; test: cytotoxicity of synthesized analogs in Vero cells, SAR follow-up, cytotoxicity control for West Nile virus antiviral project, cell-based, set II (AID 2402); type: functional; conditions: Chlorocebus sabaeus
[31] = target: Coagulation factor XII (Homo sapiens, UniProt P00748); test: FXIIa inhibitor potency, concentration-response, biochemical (AID 716); type: functional
[32] = target: Wee1-like protein kinase (Homo sapiens, UniProt P30291); test: G2/M cell cycle arrest in HeLa, late-stage follow-up, mechanism study for Wee1 degradation inhibitor project, FACS, panel member Wee1 Degradation (AID 2088)
[33] = target: G2/mitotic-specific cyclin-B1 (Homo sapiens, UniProt P14635); test: G2/M cell cycle arrest in HeLa, late-stage follow-up, mechanism study for Wee1 degradation inhibitor project, FACS, panel member Cyclin B Degradation (AID 2088)
[34] = target: T2, Dual specificity protein phosphatase 3; test: VHR1 inhibitor Ki determination, SAR follow-up, biochemical, colorimetric (AID 2004)

T2 sequence (P51452 whole entry): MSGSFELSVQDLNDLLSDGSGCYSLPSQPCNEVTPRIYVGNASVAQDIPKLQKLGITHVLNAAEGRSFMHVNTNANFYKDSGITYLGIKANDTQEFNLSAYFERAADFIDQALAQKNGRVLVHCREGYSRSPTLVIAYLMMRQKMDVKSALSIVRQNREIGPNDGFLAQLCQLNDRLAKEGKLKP
T5 sequence (Q9Y2R2 whole entry): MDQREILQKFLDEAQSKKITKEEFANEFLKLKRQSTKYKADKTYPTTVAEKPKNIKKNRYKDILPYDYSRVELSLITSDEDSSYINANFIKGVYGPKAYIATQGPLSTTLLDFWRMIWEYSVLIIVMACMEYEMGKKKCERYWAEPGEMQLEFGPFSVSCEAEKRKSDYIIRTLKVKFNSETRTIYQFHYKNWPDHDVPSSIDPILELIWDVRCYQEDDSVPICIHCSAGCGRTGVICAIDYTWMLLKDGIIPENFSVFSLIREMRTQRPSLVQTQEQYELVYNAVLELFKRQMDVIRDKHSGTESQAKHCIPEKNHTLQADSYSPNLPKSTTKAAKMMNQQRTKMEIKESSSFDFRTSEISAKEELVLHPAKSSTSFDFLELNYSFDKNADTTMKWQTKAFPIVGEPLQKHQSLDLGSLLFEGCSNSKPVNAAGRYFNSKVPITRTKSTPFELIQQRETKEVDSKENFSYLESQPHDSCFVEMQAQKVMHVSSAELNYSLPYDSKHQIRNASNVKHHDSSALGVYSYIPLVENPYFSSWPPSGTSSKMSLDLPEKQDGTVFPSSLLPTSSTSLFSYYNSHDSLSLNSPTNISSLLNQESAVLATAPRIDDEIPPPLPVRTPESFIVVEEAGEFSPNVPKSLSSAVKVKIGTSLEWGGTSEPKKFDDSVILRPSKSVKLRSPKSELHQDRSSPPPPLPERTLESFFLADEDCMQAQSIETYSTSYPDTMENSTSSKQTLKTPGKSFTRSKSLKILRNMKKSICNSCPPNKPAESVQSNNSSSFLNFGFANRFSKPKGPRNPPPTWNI
CAAX prenyl protease 2, sequence (Q03530 whole entry): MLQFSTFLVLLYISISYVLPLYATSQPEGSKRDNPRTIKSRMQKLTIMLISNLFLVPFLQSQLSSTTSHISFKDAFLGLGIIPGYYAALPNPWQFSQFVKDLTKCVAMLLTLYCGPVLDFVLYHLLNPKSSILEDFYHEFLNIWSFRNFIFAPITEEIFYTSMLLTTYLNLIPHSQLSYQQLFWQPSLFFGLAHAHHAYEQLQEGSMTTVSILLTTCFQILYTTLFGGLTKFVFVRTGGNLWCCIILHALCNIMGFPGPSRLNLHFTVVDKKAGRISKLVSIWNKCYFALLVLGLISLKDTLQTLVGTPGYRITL
Tyrosine-protein phosphatase non-receptor type 12, sequence (Q05209 whole entry): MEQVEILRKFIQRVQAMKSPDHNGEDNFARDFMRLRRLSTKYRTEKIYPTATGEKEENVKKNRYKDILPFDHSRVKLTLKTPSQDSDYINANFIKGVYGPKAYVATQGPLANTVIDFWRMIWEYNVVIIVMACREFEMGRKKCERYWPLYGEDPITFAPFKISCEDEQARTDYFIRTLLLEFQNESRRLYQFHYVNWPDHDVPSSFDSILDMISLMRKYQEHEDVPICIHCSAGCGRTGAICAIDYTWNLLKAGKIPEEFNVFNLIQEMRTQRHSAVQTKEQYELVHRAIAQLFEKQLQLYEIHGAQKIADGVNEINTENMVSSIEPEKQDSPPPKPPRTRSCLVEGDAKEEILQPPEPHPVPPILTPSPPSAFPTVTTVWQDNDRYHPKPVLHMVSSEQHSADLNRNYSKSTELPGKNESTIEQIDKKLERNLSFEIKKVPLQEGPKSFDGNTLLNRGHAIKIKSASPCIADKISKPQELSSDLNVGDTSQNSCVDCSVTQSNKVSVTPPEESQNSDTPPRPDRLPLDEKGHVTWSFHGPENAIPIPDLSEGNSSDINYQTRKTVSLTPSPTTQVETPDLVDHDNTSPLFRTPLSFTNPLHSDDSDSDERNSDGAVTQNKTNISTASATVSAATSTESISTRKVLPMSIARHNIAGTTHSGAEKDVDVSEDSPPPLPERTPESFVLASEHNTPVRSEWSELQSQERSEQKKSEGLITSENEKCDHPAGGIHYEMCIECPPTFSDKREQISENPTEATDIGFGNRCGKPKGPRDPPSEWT
Alkaline phosphatase, placental type, sequence (P05187 whole entry): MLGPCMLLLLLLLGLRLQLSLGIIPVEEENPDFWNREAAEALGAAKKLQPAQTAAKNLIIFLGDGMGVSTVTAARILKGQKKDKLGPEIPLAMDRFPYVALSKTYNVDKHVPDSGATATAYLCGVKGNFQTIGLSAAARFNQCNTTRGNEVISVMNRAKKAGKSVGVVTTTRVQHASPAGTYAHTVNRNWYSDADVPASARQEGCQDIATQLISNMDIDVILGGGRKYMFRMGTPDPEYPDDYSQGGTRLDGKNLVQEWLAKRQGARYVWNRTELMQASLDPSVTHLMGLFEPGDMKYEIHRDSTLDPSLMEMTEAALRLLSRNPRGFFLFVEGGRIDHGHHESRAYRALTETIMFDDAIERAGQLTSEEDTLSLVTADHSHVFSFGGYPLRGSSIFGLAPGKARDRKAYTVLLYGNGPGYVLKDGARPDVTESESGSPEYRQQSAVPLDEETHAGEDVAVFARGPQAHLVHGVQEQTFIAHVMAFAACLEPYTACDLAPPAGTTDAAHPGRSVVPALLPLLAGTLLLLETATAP
Coagulation factor XII, sequence (P00748 20-372 limits assumed): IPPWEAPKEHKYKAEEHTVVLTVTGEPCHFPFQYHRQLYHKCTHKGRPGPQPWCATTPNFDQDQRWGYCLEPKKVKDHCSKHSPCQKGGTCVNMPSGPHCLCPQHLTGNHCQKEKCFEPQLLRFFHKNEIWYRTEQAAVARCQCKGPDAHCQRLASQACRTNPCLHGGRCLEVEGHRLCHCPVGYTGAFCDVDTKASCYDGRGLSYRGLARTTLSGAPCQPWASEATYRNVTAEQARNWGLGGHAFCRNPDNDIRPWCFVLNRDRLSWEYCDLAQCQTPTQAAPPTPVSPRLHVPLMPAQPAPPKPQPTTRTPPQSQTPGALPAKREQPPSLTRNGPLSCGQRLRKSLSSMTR
Coagulation factor XII, sequence (P00748 373-615 limits assumed): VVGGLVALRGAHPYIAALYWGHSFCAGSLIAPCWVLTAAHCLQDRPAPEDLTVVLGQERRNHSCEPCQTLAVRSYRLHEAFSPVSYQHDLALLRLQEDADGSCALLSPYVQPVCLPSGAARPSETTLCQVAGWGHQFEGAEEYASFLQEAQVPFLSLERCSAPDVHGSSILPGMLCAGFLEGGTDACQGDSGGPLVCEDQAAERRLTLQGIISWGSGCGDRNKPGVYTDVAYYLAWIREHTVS
Tumor necrosis factor, sequence (P01375 whole entry): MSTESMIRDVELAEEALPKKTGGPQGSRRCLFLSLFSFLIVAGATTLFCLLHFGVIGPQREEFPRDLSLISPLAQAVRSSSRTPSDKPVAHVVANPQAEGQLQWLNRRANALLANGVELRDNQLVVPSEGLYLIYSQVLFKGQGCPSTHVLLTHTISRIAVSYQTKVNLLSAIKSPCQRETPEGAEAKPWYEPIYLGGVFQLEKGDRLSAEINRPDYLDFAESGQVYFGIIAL
Melanin-concentrating hormone receptor 1, sequence (Q99705 whole entry): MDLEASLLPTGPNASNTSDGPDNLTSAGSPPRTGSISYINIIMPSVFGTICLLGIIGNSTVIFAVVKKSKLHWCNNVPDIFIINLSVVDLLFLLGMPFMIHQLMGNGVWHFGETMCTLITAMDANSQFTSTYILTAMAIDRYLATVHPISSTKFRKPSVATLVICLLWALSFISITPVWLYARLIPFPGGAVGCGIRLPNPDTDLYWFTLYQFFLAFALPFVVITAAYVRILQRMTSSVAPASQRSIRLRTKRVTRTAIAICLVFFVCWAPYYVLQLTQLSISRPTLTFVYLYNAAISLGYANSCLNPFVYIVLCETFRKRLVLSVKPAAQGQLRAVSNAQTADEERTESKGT
Wee1-like protein kinase, sequence (P30291 whole entry): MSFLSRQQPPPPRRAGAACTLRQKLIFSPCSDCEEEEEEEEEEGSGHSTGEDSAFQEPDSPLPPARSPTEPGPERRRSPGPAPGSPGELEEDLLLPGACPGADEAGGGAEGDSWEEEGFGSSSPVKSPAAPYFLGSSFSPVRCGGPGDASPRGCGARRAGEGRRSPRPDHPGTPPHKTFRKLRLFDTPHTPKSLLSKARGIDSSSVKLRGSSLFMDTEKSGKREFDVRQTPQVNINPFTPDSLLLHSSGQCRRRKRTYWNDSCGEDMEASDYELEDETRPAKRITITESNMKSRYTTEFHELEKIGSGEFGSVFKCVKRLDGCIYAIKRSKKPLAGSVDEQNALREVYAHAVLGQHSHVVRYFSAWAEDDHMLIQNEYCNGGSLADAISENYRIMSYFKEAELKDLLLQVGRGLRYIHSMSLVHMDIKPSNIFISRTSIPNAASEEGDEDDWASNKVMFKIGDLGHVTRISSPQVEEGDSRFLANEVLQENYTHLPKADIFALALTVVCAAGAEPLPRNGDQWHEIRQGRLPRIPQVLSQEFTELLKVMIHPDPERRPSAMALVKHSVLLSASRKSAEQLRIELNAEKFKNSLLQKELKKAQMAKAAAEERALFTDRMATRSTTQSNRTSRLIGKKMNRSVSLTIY
G2/mitotic-specific cyclin-B1, sequence (P14635 whole entry): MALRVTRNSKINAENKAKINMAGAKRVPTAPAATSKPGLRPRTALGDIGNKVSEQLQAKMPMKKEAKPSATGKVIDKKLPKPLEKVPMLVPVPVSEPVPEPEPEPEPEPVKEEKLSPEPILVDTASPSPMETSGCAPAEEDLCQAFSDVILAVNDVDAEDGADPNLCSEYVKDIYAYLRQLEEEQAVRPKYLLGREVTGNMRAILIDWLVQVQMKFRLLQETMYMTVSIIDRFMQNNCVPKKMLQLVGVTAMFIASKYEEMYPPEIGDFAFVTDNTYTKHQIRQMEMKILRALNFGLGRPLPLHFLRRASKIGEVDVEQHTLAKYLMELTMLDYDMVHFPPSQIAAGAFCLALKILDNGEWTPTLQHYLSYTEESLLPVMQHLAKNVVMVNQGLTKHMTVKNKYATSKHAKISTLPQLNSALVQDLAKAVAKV

With `O=C(O)c1cc(-c2ccccc2Cl)n[nH]1` the IC50 [1] was 0.584 µM (active), the IC50 [2] was > 100 µM (inactive) and the IC50 [3] was > 100 µM (not active).

For `COc1ccc(Oc2c(Cl)cnn(-c3cc(Cl)cc(Cl)c3)c2=O)cc1`, the IC50 [4] was 1.1 µM (active).

For `NS(=O)(=O)c1ccc(NC(=S)NC2CC2)cc1`, the IC50 [5] was > 99 µM (inactive), the IC50 [6] was > 100 µM (inactive) and the IC50 [7] was > 99 µM (inactive). The IC50 [8] was 27.9 µM (active), the IC50 [9] was > 100 µM (inactive) and the IC50 [10] was 12.5 µM (active). For the same compound, the IC50 [11] was 0.588 µM (active) and the IC50 [12] was 5.38 µM (active).

For `CCCCCC(=O)N/N=C/c1ccc([N+](=O)[O-])o1`, the EC50 [13] was 0.183 µM (active), the AC50 [14] was 26.6 µM (active) and the EC50 [15] was > 60 µM (not active).

In the case of `CC(C)C[C@@H](CSc1ccc(Br)cc1)N1CCN(CC(C)C)CCC1=O`, the EC50 [16] is reported as 15.3 µM (inactive).

In the case of `CCc1ccc(/N=C2/NC(=O)/C(=C/c3ccc(OCC(=O)O)c(Cl)c3)S2)cc1`, the IC50 [17] is reported as 7.69 µM (active), the IC50 [6] is reported as 2.71 µM (active) and the IC50 [18] is reported as 11.2 µM (active). For the same compound, the IC50 [7] was 65.7 µM (active), the IC50 [11] was 2.89 µM (active) and the IC50 [19] was 21.7 µM (active). For the same compound, the IC50 [12] was 4.83 µM (active).

With `CCn1cc(/C=C(\NC(=O)c2ccccc2F)C(=O)N2CCCC2)c2ccccc21` the AC50 [20] was 3.91 µM (active).

For `COc1ccc(-c2cc(C(=O)NC3CCCc4c3cnn4-c3ccccc3F)n(C)n2)cc1` (stereo not given), the IC50 [21] was > 20 µM (inactive), the IC50 [22] was 0.99 µM (active) and the IC50 [23] was 1.34 µM (active). The IC50 [24] was 1.36 µM (active).

With `OC1c2cc(Br)ccc2N=C2CCCN21` (stereo not given) the CC50 [25] was 71.5 µM (active), the IC50 [26] was 25.7 µM (active) and the EC50 [13] was 3.78 µM (active). The IC50 [27] was 14.5 µM (active), the IC50 [28] was > 25 µM (active) and the CC50 [29] was > 80 µM (active). The CC50 [30] was 35.5 µM (active) and the EC50 [15] was > 60 µM (not active).

In the case of `CN(CC(=O)Nc1cccnc1)S(=O)(=O)c1cc(Cl)ccc1Cl`, the IC50 [31] is reported as > 50 µM (inactive).

With `Cc1cc(O)nc(-n2nc(C)cc2NC(=O)c2ccccc2Br)n1` the EC50 [32] was > 49.7 µM (inactive) and the EC50 [33] was > 49.7 µM (inactive).

With `O=C(O)c1cccc2c1NC(c1ccc(Cl)cc1)C1CC=CC21` (stereo not given) the Ki [34] was 119 µM (inactive).
